We go through one compound from article PMC5693660 (Amino acids, 2017).

In the assay the target is T1, deoxyhypusine synthase (DHS) (Homo sapiens, UniProt P49366).
T1 sequence (P49366 1-369): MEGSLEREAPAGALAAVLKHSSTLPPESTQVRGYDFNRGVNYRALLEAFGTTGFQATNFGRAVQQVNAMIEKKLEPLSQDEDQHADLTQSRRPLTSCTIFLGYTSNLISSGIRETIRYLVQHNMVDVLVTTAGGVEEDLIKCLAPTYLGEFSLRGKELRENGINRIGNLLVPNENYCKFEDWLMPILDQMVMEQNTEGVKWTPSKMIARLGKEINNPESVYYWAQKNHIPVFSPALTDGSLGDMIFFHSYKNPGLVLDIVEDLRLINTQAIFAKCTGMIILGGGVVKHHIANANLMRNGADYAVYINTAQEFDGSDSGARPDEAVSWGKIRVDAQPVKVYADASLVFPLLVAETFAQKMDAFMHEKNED
Format: biochemical.

Bounds are passed on as bounds.

In the case of `N=C(N)NCCCCCCCN` [GC7], the IC50 (usually the point on the concentration scale where inhibition reaches its midpoint) was less than 1000 nM.
